Data on 18 molecules can be found in patent US7816522B2, “Triazolone derivatives” (Eisai Co., Ltd., priority 2006, dated 2010).

SMILES strings stand for the structures. pIC50: −log10 of the molar value.

As a reminder, the pIC50 is the negative decadic logarithm of the IC50, by convention in mol/L. The low end stands for a large IC50, the high end for a small IC50.

This experiment has as its target T1, human clotting factor VIIa (Homo sapiens, UniProt P08709).
T1 construct: a human clotting factor VIIa (hereinafter, “Factor VIIa”) purified sample; purchased Enzyme Research Laboratories HFVIIa
Put plainly: Inhibitory activity against clotting factor VIIa (chromogenic substrate Spectrozyme FVIIa, TF/Factor VIIa enzyme solution). The format is biochemical. As to conditions: human Factor VIIa 5 nmol/L with human TF 10 nmol/L, room temperature 40 minutes, 405 nm. Here is the method:
[Inhibitory Activity Against Clotting Factor VIIa]
Dimethylsulfoxide (DMSO) solutions were prepared with compounds of the invention at concentration of 10 mmol/L (10 mmol/L compound solutions).
One packet of tris-hydroxymethylaminomethane-preset (hereinafter referred to as “Tris preset”) (Product of Sigma Corp., Catalog No. T8293), 8.8 g of sodium chloride (NaCl) and 1 g of bovine serum albumin (hereinafter abbreviated as “BSA”) were dissolved in 1 L of water to prepare a Tris-BSA buffer (100 mmol/L Tris, 0.15 mol/L NaCl, 0.1% BSA, pH 7.4).
This Tris-BSA buffer (180 μL) was added to the aforementioned 10 mmol/L compound solution (20 μL). A 10-fold dilution series was prepared for this mixture using the aforementioned Tris-BSA buffer, and solutions with the compound at concentrations of 1.0 mmol/L, 100, 10, 1, 0.1, 0.01 and 0.001 μmol/L were prepared (1.0 mmol-0.001 μmol/L compound solutions). As a control, a solution was prepared by 10-fold dilution of DMSO with the Tris-BSA buffer (hereinafter referred to as “control 10% solution”).
After dissolving one packet of Tris preset, NaCl (8.8 g) and BSA (1 g) in water (about 900 mL), there were added 1 mol/L aqueous calcium chloride (CaCl2) (15 mL) and 1 mg/mL aqueous cephalin (30 mL), and the total volume was brought to 1 L by adding water. To this solution there was added a human tissue factor (hereinafter, “TF”) sample (product of Calbiochem, Catalog No. 612151) (450 μg) to a TF sample concentration of 10 nmol/L, and then a human clotting factor VIIa (hereinafter, “Factor VIIa”) purified sample (product of Enzyme Research Laboratories, Catalog No. HFVIIa) (250 μg) was added to a Factor VIIa purified sample concentration of 5 nmol/L, to prepare an enzyme solution (100 mmol/L Tris-HCl, 0.15 mol/L NaCl, 15 mmol/L CaCl2, 30 μg/mL cephalin, 1 mg/mL BSA, 10 nmol/L TF, 5 nmol/L Factor VIIa).
To 110 μL of this enzyme solution there was added 15 μL of each of the 1.0 mmol-0.001 μmol/L compound solutions, and then 25 μL of a 1.0 mmol/L synthetic chromogenic substrate solution (Spectrozyme FVIIa, product of American Diagnostica, Catalog No. 217L) was added and the mixture was allowed to stand at room temperature for 40 minutes. Next, the amount of 4-nitroanilide released into the solution was quantitated by spectrophotometry (405 nm).
A control measurement was conducted in the same manner, using the control 10% solution instead of the compound solution.
This measurement yielded the enzyme reaction inhibition in the presence of 100 μmol/L to 0.1 nmol/L of each compound of the invention.
The enzyme reaction inhibition at each compound concentration was subjected to non-linear regression analysis, and the IC50 value for inhibitory activity of each compound against clotting factor VIIa was calculated.

T1 sequence (P08709 213-466 limits assumed): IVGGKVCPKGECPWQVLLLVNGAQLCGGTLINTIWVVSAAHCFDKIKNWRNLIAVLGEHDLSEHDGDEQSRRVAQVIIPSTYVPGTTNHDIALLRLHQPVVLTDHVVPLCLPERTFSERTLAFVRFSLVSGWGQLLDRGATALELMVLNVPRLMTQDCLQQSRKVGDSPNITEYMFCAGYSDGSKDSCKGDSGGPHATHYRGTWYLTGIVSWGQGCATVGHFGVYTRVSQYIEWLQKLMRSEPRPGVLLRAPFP
T1 sequence (P08709 61-212 limits assumed): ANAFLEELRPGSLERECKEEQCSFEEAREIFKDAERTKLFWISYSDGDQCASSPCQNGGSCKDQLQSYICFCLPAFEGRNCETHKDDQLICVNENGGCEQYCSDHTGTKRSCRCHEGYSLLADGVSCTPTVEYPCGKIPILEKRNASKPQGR
T1 sequence (P13726 33-295 partner): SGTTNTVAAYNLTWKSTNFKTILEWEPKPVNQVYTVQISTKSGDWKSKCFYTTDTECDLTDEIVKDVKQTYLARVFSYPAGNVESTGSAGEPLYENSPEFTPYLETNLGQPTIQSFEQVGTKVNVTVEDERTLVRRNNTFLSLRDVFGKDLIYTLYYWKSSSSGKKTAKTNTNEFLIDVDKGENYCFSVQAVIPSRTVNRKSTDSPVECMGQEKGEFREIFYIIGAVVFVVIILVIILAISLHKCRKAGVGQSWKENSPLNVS

For the molecule `CCc1cc(C(Nc2ccc(C(=N)N)cc2)c2nn(-c3ncccn3)c(=O)[nH]2)cc2c1OCOC2` (racemic) [Example 27, (R) and (S)-4-{[(8-ethyl-4H-benzo[1,3]dioxin-6-yl)-(5-oxo-1-pyrimidin-2-yl-4,5-dihydro-1H-[1,2,4]triazol-3-yl)methyl]amino}benzamidine acetate], the pIC50 is 8.51.

`CCOc1cc(C(Nc2ccc(C(=N)N)cc2)c2nn(-c3ncccn3)c(=O)[nH]2)cc2c1OCOC2` (racemic) [Example 28, (R) and (S)-4-{[(8-ethoxy-4H-benzo[1,3]dioxin-6-yl)-(5-oxo-1-pyrimidin-2-yl-4,5-dihydro-1H-[1,2,4]triazol-3-yl)methyl]amino}benzamidine acetate] gave a pIC50 of 8.05.

The molecule `COc1cc(C(Nc2ccc(C(=N)N)cc2)c2nn(-c3ncccc3F)c(=O)[nH]2)cc2c1OCCC2` (racemic) [Example 29, (R) and (S)-4-({[1-(3-fluoropyridin-2-yl)-5-oxo-4,5-dihydro-1H-[1,2,4]triazol-3-yl]-(8-methoxychroman-6-yl)methyl}amino)benzamidine acetate] gave a pIC50 of 8.57.

Turning to `COc1cc(C(Nc2ccc(C(=N)N)cc2)c2nn(-c3ncccc3F)c(=O)[nH]2)cc2c1OCCCO2` (racemic) [Example 30, (R) and (S)-4-({[1-(3-fluoropyridin-2-yl)-5-oxo-4,5-dihydro-1H-[1,2,4]triazol-3-yl]-(9-methoxy-3,4-dihydro-2H-benzo[b][1,4]dioxepin-7-yl)methyl}amino)benzamidine acetate], the pIC50 was 8.41.

For `COc1cc(C(Nc2ccc(C(=N)N)cc2)c2nn(-c3ncccn3)c(=O)[nH]2)cc2c1OCC2` (racemic) [Example 31, (R) and (S)-4-{[(7-methoxy-2,3-dihydrobenzofuran-5-yl)-(5-oxo-1-pyrimidin-2-yl-4,5-dihydro-1H-[1,2,4]triazol-3-yl)methyl]amino}benzamidine acetate], the pIC50 was 8.15. Against the preceding molecule, the pIC50 is 0.26 log units lower.

The molecule `COc1cc(C(Nc2ccc(C(=N)N)cc2)c2nn(-c3ncccn3)c(=O)[nH]2)c(F)c2c1OCOC2` (racemic) [Example 32, (R) and (S)-4-{[(5-fluoro-8-methoxy-4H-benzo[1,3]dioxin-6-yl)-(5-oxo-1-pyrimidin-2-yl-4,5-dihydro-1H-[1,2,4]triazol-3-yl)methyl]amino}benzamidine acetate] had a negative-log IC50 (pIC50) of 7.94. This pIC50 lies 0.21 log units lower than the previous one.

Regarding `COc1cc(C(Nc2ccc(C(=N)N)cc2)c2nn(-c3ncccn3)c(=O)[nH]2)c(F)c2c1OCCC2` (racemic) [Example 33, (R) and (S)-4-{[(5-fluoro-8-methoxychroman-6-yl)-(5-oxo-1-pyrimidin-2-yl-4,5-dihydro-1H-[1,2,4]triazol-3-yl)methyl]amino}benzamidine acetate], the negative-log IC50 (pIC50) was 8.17.

The molecule `COc1cc(C(Nc2ccc(C(=N)N)cc2)c2nn(-c3ncccc3N)c(=O)[nH]2)cc2c1OCCCO2` (racemic) [Example 34, (R) and (S)-4-({[1-(3-aminopyridin-2-yl)-5-oxo-4,5-dihydro-1H-[1,2,4]triazol-3-yl]-(9-methoxy-3,4-dihydro-2H-benzo[b][1,4]dioxepin-7-yl)methyl}amino)benzamidine acetate] gave a pIC50 of 8.52. Compared with the last molecule, the pIC50 is 0.35 log units higher.

`CCOc1cc(C(Nc2ccc(C(=N)N)cc2)c2nn(-c3ncccc3N)c(=O)[nH]2)ccc1OC` (racemic) [Example 35, (R) and (S)-4-({[1-(3-aminopyridin-2-yl)-5-oxo-4,5-dihydro-1H-[1,2,4]triazol-3-yl]-(3-ethoxy-4-methoxyphenyl)methyl}amino)benzamidine acetate] had a pIC50 of 8.17.

In the case of `COc1ccc(C(Nc2ccc(C(=N)N)cc2)c2nn(-c3ccccc3C(=O)O)c(=O)[nH]2)cc1OC` (racemic) [Example 36, (R) and (S)-2-{3-[(4-carbamimidoylphenylamino)-(3,4-dimethoxyphenyl)methyl]-5-oxo-4,5-dihydro-[1,2,4]triazol-1-yl}benzoic acid acetate], the pIC50 was 8.42.

`COc1ccc(C(Nc2ccc(C(=N)N)c(F)c2)c2nn(-c3ccccc3C(=O)O)c(=O)[nH]2)cc1OC` (racemic) [Example 37, (R) and (S)-2-{3-[(4-carbamimidoyl-3-fluorophenylamino)-(3,4-dimethoxyphenyl)methyl]-5-oxo-4,5-dihydro-[1,2,4]triazol-1-yl}benzoic acid acetate] showed a pIC50 of 8.36.

Consider `COc1cc(C(Nc2ccc(C(=N)N)cc2)c2nn(-c3ccccc3C(=O)O)c(=O)[nH]2)cc(C)n1` (racemic) [Example 38, (R) and (S)-2-{3-[(4-carbamimidoylphenylamino)-(2-methoxy-6-methylpyridin-4-yl)methyl]-5-oxo-4,5-dihydro-[1,2,4]triazol-1-yl}benzoic acid acetate], for which the negative-log IC50 (pIC50) is 8.13.

In the case of `COc1cc(C(Nc2ccc(C(=N)N)cc2)c2nn(-c3ncccn3)c(=O)[nH]2)cc(C)n1` (racemic) [Example 39, (R) and (S)-4-{[(2-methoxy-6-methyl-pyridin-4-yl)-(5-oxo-1-pyrimidin-2-yl-4,5-dihydro-1H-[1,2,4]triazol-3-yl)methyl]amino}benzamidine acetate], the negative-log IC50 (pIC50) was 7.69.

With `COc1cc(C(Nc2ccc(C(=N)N)cc2)c2nn(-c3ncccn3)c(=O)[nH]2)c(F)c2c1OCC2` (racemic) [Example 40, (R) and (S)-4-{[(4-fluoro-7-methoxy-2,3-dihydrobenzofuran-5-yl)-(5-oxo-1-pyrimidin-2-yl-4,5-dihydro-1H-[1,2,4]triazol-3-yl)methyl]amino}benzamidine acetate], the pIC50 was 8.05.

The molecule `COc1cc(C(Nc2ccc(C(=N)N)cc2)c2nn(-c3ncccn3)c(=O)[nH]2)c(F)c2c1OCCO2` (racemic) [Example 41, (R) and (S)-4-{[(5-fluoro-8-methoxy-2,3-dihydrobenzo[1,4]dioxin-6-yl)-(5-oxo-1-pyrimidin-2-yl-4,5-dihydro-1H-[1,2,4]triazol-3-yl)methyl]amino}benzamidine acetate] gave a pIC50 of 8.19.

Molecule `COc1cc(C(Nc2ccc(C(=N)N)cc2)c2nn(-c3ncccn3)c(=O)[nH]2)c(F)c2c1OCCCO2` (racemic) [Example 42, (R) and (S)-4-{[(6-fluoro-9-methoxy-3,4-dihydro-2H-benzo[b][1,4]dioxepin-7-yl)-(5-oxo-1-pyrimidin-2-yl-4,5-dihydro-1H-[1,2,4]triazol-3-yl)methyl]amino}benzamidine acetate] gave a negative-log IC50 (pIC50) of 8.44.

In the case of `Cc1cc(OC2CCN(C)CC2)cc(C(Nc2ccc(C(=N)N)cc2)c2nn(-c3ncccn3)c(=O)[nH]2)c1` (racemic) [Example 43, (R) and (S)-4-({[3-methyl-5-(1-methylpiperidin-4-yloxy)phenyl]-(5-oxo-1-pyrimidin-2-yl-4,5-dihydro-1H-[1,2,4]triazol-3-yl)methyl}amino)benzamidine diacetate], the pIC50 is 8.10.

In turn, `Cc1cc(OCC(=O)N(C)C)cc(C(Nc2ccc(C(=N)N)cc2)c2nn(-c3ncccn3)c(=O)[nH]2)c1` (racemic) [Example 44, (R) and (S)-2-{3-[(4-carbamimidoylphenylamino)-(5-oxo-1-pyrimidin-2-yl-4,5-dihydro-1H-[1,2,4]triazol-3-yl)methyl]-5-methylphenoxy}-N,N-dimethylacetamide acetate] gave a negative logarithm of the IC50 (pIC50) of 7.59.
